Data: patent publication US4579866A, “Phenylacetamides as anti-allergy, anti-asthma and anti-inflammatory agents” (USV Pharmaceutical Corp., priority 1984, dated 1986)

Columns and labels:
[1] = system: LTC4; experiment: Antagonism of leukotriene C4 binding (guinea pig peripheral lung strips, contraction); type: cell-based; settings: Cavia porcellus, leukotriene C4 usually 0.2 nM, 37° C., read-out: ANTAGONISM OF LTC4 BINDING, I50
Description: Protocol for Antagonism of Leukotrines C-4 Binding
Peripheral strips of guinea pig lungs are prepared and hung in tissue baths according to the procedure described by Drazen et al. (Proc. Nat'l. Acad. Sci., U.S.A. 77, 4354-4358, 1980). Male guinea pigs (Charles River, 250-400 g) are sacrificed by cervical dislocation and their lungs rapidly removed. The individual lobes are dissected free and rinsed in Assay Buffer (118 mM NaCl, 5.4 mM KCl, 2.5 mM CaCl2, 25 mM […], 1 mM MgSO4, 1 mM NaH2 PO4, 11 mM glucose) which is continuously aerated with 95% oxygen/5% carbon dioxide. After the lobes are extensively rinsed, a strip of lung tissue, approximately 2 mm thick and 5-8 cm long, is cut off the sharpest and most peripheral portion of each lobe. The peripheral edge is cut almost completely around the outside of the lobe so that a U-shaped strip is obtained. These strips are rinsed in Assay Buffer and then connected with surgical silk thread to the support rods of the water jacketed tissue baths (10 ml chambers). The other ends of the strips are connected to Gould UC3 pressure transducers which had been previously calibrated. The tissue baths are aerated with 95% oxygen/5% carbon dioxide and maintained at 37° C. The tension on these strips are adjusted to 500 mg. The tissues are initially washed with fresh buffer every 5-10 minutes for about 30 minutes and thereafter washed with fresh assay buffer at least every 20 minutes.
After the tissue had been repeatedly washed and allowed to equilibrate in the tissue baths, they are challenged with 1 μM histamine to standardize the contractions for each tissue.
Responses of each tissue to a predetermined concentration (usually 0.2 nM) of leukotriene C4 are then obtained. Compounds are then tested for their ability to antagonize to leukotriene C4 immediately upon challenge.
(§1) If the percentage of inhibition exceeds 50%, the compounds are then evaluated in terms of response over a range of concentrations. From a plot of response against concentration, the I50 value is obtained. The I50 value is the concentration at which 50% inhibition is observed.

[2] = target: T1, HUMAN 5 LIPOXYGENASE (Homo sapiens, UniProt P09917); experiment: Biosynthesis of 5-HETE by human polymorphonuclear leukocytes in vitro (inhibition of human 5-lipoxygenase); type: cell-based; settings: human neutrophils, A23187, 3 minutes at 30° C.; concentration at which 50% inhibition is observed; read-out: INHIBITION OF HUMAN 5 LIPOXYGENASE, I50
T1 construct: A suspension of human neutrophils in buffer; endogenous in cells; host or cells: human neutrophils (PMNs) from venous blood of healthy volunteers
T1 sequence (P09917 1-674): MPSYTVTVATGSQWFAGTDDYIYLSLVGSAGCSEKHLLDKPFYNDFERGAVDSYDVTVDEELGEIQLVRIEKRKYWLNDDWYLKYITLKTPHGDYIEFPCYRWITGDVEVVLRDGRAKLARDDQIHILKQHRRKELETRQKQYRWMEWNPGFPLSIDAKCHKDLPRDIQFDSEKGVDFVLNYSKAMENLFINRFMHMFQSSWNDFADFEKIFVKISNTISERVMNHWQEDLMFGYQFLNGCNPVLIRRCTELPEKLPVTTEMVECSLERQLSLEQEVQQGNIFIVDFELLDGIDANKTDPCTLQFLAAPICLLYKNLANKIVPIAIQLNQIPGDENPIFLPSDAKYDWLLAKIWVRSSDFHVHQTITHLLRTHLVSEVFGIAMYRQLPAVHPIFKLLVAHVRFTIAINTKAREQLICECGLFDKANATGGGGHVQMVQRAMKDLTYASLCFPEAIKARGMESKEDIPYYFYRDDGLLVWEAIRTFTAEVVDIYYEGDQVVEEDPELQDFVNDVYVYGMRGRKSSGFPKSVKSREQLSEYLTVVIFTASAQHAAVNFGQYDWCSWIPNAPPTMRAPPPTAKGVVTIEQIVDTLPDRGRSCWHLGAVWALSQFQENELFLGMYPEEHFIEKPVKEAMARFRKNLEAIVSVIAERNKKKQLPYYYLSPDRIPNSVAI
Description: Protocol for the Biosynthesis of 5-HETE (5(S)-Hydroxyeicosatetraenoic Acid) by Human Polymorphonuclear Leukocytes In Vitro
(A) Isolation of Human Neutrophils
Freshly drawn venous blood from healthy human volunteers is mixed with 2 mM ethylenediamine tetraacetic acid, and is sedimented at 1×g over 6% dextran-saline. The leukocyte layer is aspirated, and the cells are concentrated by centrifugation and are layered over stacked Percoll® solutions, having densities of 1.072, 1.082 and 1.100, respectively. PMNs are isolated at the interface between the two densest layers after centrifugation at 400×g. Contaminating red blood cells are lysed by a short treatment of 0.16M ammonium chloride.
A suspension of human neutrophils in buffer is incubated for 3 minutes at 30° C. with (^14 C)-arachidonic acid (AA) and calcium ionophore A23187. Citric Acid (2M)/NDGA*(10 mM) is used to quench the reaction. Following the addition of a trace amount of (^3 H)-5-HETE together with an excess of unlabeled 5-HETE to each tube, the mixture is extracted with chloroform/methanol. The organic layer is washed with dilute hydrochloric acid and the total volume is transferred to glass tubes and dried in vacuo. The residue is dissolved in a small volume of chloroform and is spotted on silica gel TLC sheets, which are developed with an ethyl acetate/iso-octane/water/acetic acid solvent system (11/5/10/1 v/v). The 5-HETE spots are visualized under UV light, cut out and placed in scintillation vials for quantitation of radioactivity. After adjusting for the extraction efficiency, the amount (pmole) of (^14 C)-5-HETE in each of the tubes is calculated. The net pmoles of 5-HETE are obtained by subtracting the pmole of 5-HETE in the tubes containing buffer alone (blank) from the pmoles of 5-HETE in the tubes containing […]. The ability of the test compound to modulate the activity of this enzyme is determined by a decrease or increase in the net amount of 5-HETE produced. This assay is a modification of that described by Bach and Brashler for rat peritoneal cells: Bach, M., Brashler, J.: Ionophore A23187-Induced Production of SRS-A by Rat Peritoneal Cells In Vitro: Evidence for Production by Mononuclear Cells. J. Immunol. 120 998-1005 (1978).
*NDGA-nordihydroguaiaretic acid
as §1

| SMILES | IC50 [1] [µM] | IC50 [2] [µM] |
| --- | --- | --- |
| CCCOc1ccc(CC(=O)N[C@H](Cc2ccccc2)C(=O)OC)cc1Cl [3-Chloro-4-n-propyloxyphenylacetyl-D-phenylalanine methyl ester] | 9 | 6 |
| C#CCOc1ccc(CC(=O)N[C@H](Cc2ccccc2)C(=O)OC)cc1Cl [3-Chloro-4-propargyloxyphenylacetyl-D-phenylalanine methyl ester] | 12 | 1.5 |
| CN(CC(O)c1ccccc1)C(=O)Cc1ccc(OCCc2ccccc2)c(Cl)c1 (centres unmarked) [N--[3-Chloro-4-phenylethyloxyphenylacetyl]-N--methyl-2-hydroxy-2-phenyl-ethyl-amine] | 5 | 10 |
| C=CCOc1ccc(CC(=O)N(C)CCc2ccccc2)cc1Cl [N--[4-Alloyoxy-3-chlorophenylacetyl]-N--methyl-2-phenylethylamine] | 3 | 2 |
